Laboratory results: patent publication US20250082760A1 (priority 2020, published 2025)
Structures can show the parent of a compound that is named as a salt.

Key:
[1] = tested on: hot plate pain threshold in mice; assay: hot plate method, compound 1, intragastric administration; type: in vivo
Procedure: All the mice participating in the experiment were subjected to hot plate pain threshold detection before the experiment, and qualified mice with pain threshold of 10-40 s were screened.
Accurately weigh an appropriate amount of compound 1, dissolve it in distilled water and prepare a mother liquor of 100 mg/ml, then dilute to 1.25 mg/ml (25 mg/kg), 2.5 mg/ml (50 mg/kg) with double distilled water respectively; accurately weigh an appropriate amount of the positive control drug gabapentin, dissolve in distilled water and prepare a 100 mg/ml mother solution, and then dilute to 10 mg/ml (200 mg/kg) with double distilled water. All medicines are prepared and utilized as needed.
40 only qualified mice were divided into 4 groups, half male and half female in each group. The first group is the blank group, no administration; the second group is the positive control (gabapentin) 25 mg/kg group; the third group is the test drug 25 mg/kg group; the fourth group is the test drug 50 mg/kg group 4. All were administered by gavage.
The mice were placed in a hot plate apparatus at a temperature of 55±0.5° C., and the pain thresholds of the mice were measured and recorded before administration and 60 min after administration.

[2] = tested on: lipopolysaccharide-induced depression mouse model; assay: lipopolysaccharide-induced depression mouse model (open field, forced swimming test, body weight); type: in vivo, ICR mice
Procedure: Positive drug: fluoxetine hydrochloride capsule (specification 20 mg), take the content in a mortar, add 40 ml of 0.5% CMC-Na solution while grinding, to a suspended state, set EP tube for use; test drug (compound 5): dissolve into 5, 10, and 20 mg/ml solutions in distilled water, respectively, and put them in EP tubes for later use; modeling drug (LPS): take a frozen lipopolysaccharide PBS solution (1.2 mg: 1.2 ml), and after thawing Use a pipette to take 1 ml into the EP tube, replace with a new pipette tip and pipette 9 ml of normal saline into the EP tube, shake well for use.
Except for the first group (blank control group), other groups of animals were intraperitoneally injected with LPS 2 h before the last administration on the 7th day to the mice in the model group, the positive drug group, and the low, middle and high dose groups of the test drug.
The first group was the blank control group, which was given 0.5% CMC-Na 0.2 ml/20 g by gavage; the second group was the model group, which was given 0.5% CMC-Na by gavage; the third group was the positive drug group, which was given by gavage Flunarizine hydrochloride (sibilin) 1 mg/kg; the fourth group was the low-dose group of the test drug, which was given 100 mg/kg of compound 5 by gavage; the fifth group was the medium-dose group of the test drug, which was given 200 mg/kg by gavage. kg of compound 5; the sixth group was the test drug high-dose group, and 400 mg/kg of compound 5 was administered by gavage. The drug was administered for one week, and the second to sixth groups were intraperitoneally injected with 1 mg/kg (0.2 ml/20 g) of LPS on the seventh day to establish a model.
On the 7th day, before the last administration and modeling, the effect of the drug on the spontaneous activity of the mice should be investigated, and it is excluded that the drug increases the spontaneous activity of the mice and interferes with the immobility time in the forced swimming experiment. The total migration distance of each mouse in the open field (50×50×50 cm) within 5 min was calculated using the open field experimental instrument and related computer software. Before the data collection, each mouse was given 5 min to familiarize with the open field environment, after each mouse was tested, its excrement was removed and the odor was eliminated with an alcohol spray bottle.
Because the air temperature is low, it is appropriate to control the water temperature by adding hot water to the cylinder.
In the spontaneous activity, the behavioral index selects the total migration distance of mice in the open field within 5 minutes,
by tracking the movement trajectory of mice through monitoring devices, and using computer software, the total distance of movement can be directly obtained; in the FST experiment, the mice were placed in a into a transparent cylinder filled with warm water (about 25° C.) for 6 minutes, the mice will experience struggling, swimming and floating behaviors, the time when the mice stop struggling to float on the water surface is identified as a state of despair caused by depression, by using monitoring equipment and computer software to statistically analyze the state of mice after 4 minutes, the total “Immobility time” can be directly obtained.

[3] = tested on: righting reflex in mice; assay: mouse righting reflex test (sedative and hypnotic effects); type: in vivo, Kunming mice; details: intraperitoneal, Pro 25 mg/kg, n = 7
Procedure: Experimental animals, SPF Kunming mice, male, 20-30 g, Laboratory Animal Center of Lanzhou University (certificate number: SCXK (Gan) 2018-0002), reared in separate cages, temperature, 22±1° C., humidity, 50%, automatic in the light-controlled 12 h/12 h light-dark cycle (light-on time 8:00 h, light-off time 20:00 h, light intensity ≈100 lux) environment, free food and activities, adapted to the experimental environment for 5 days.
(§1) Statistical analysis, the experimental data were analyzed by SPSS 19.0 statistical software, and all data were expressed as Means±SEM.

[4] = tested on: reserpine-treated mice; assay: mouse sugar water preference test (reserpine depression model); type: in vivo, Kunming mice; details: after Res 6 mg/kg i.p., CLI 50, Pro 25, A1P1 24 and 25, compound 5 56 mg/kg i.p.; for Sugar water preference (sugar water drinking amount/total drinking amount): Means±SEM, Res + DMSO 0.642 ± 0.036, DMSO 0.901 ± 0.026
Procedure: Experimental drug, clomipramine (CLI), sigma company, batch number: C7291, 10 mg/ml (10% DMSO); reserpine (Res), sigma company, batch number: 83580, 1 mg/ml (10% DMSO);
SPF adult male Kunming mice, 20-30 g, Laboratory Animal Center of Lanzhou University, animal certificate number: SCXK (Gan) 2018-0002, reared in separate cages, temperature 22±1° C., humidity […], 12 h/12 h light and dark cycle controlled by dynamic light (light-on time 8:000 h, light-off time 20:000 h, light intensity≈100 lux), animals could eat and move freely.
as §1

[5] = tested on: reserpine depression model mice; assay: forced swimming test in mice (reserpine depression model); type: in vivo, Kunming mice; details: after Res 6 mg/kg i.p., CLI 50, Pro 25, A1P1 24 and 25, compound 5 56 mg/kg i.p.; for Forced swimming immobility time: 5 min test, Means±SEM, Res + DMSO 169.82 ± 11.22, DMSO 106.72 ± 16.49
Procedure: Experimental Drug, Animal, Grouping and Administration are Same as Sugar Water Preference Experiment Method.
Preparation of depression animal models, acute intraperitoneal injection of 6 mg/kg Res can cause a continuous decrease in monoamine neurotransmitters in the brain for 1 week, and depression-like behaviors last for 72 hours, it is often utilized for the preparation of depression models (Huang et al., 2004).
Forced swimming experiment process, the forced swimming experiment is an experiment in which animals are placed in an unavoidable stressful environment to detect the despair state of animal behavior (Porsolt et al., 1978). Male Kunming mice were selected and randomly divided into groups. Conduct in a quiet and enclosed behavioral observation room, with red lights for indoor lighting (25 lux). The experiment is divided into two stages, the first stage: adaptation experiment, 1 day before the test, 9:00-12:00 h, put the animals into the forced swimming test equipment (plexiglass drum: diameter 20 cm, height 25 cm, water depth 12 cm, water temperature 21-25° C., the upper side CCD camera is connected to the computer to record) after 15 minutes of adaptation, take it out, dry the hair with a towel and put it back into the cage. The second stage: testing experiment, animals in each group were put into the forced swimming bucket for 5 minutes at the same time period, and the behavioral activities during the testing period were tracked and recorded by digital cameras and then analyzed. Immobility time: The animal floats on the water surface, with no movement of the limbs or slight movement of the hind limbs to keep the head above the water surface. Evaluate depression like behavior by detecting the despair state of animals based on their immobility time.
as §1

[6] = tested on: nitroglycerin-induced migraine mouse model; assay: nitroglycerin-induced migraine mouse model (hot plate, head scratching, body weight); type: in vivo, ICR mice
Procedure: 48 ICR mice weigt 18-22 g, half male and half female; purchased from Qinglongshan Animal Breeding Farm, Jiangning District, Nanjing City, certificate: SCXK (Su) 2017-0001; rearing conditions: room temperature 18-20° C., same sex rearing in separate cages, 12 hours of light, regular ventilation, conventional full-price solid feed feeding, bedding changed every two days; 48 mice were randomly divided into 6 groups (blank control group, model group, positive drug group, low-dose group of test drug, medium-dose group of test drug, high-dose group of test drug), 8 animals (4♀4) in each group, marked No. 1-8 with picric acid respectively.
Solvent: 0.5% CMC-Na aqueous solution; positive drug: flunarizine hydrochloride (sibelin) capsules (specification 5 mg), take the contents in a mortar, add 100 ml of 0.5% CMC-Na solution while grinding, placed in EP tubes for standby; Test drug (compound 5): dissolve into 5, 10, 20 mg/ml solutions with distilled water respectively, and placed in EP tubes for standby; Modeling drug (nitroglycerin): take 2 nitroglycerin tablets (specification 5 mg), crushed into powder, placed in EP tubes, added 500 μl of propylene glycol with a pipette and shaken well, standing still for 5 minutes, added 9.5 ml of normal saline, shaken well and standing still overnight, take the supernatant (containing nitroglycerin) 1 mg/ml) for use.
Except for the first group (blank control group), animals in other groups were subcutaneously injected with 10 mg/kg (0.2 ml/20 g) of nitroglycerin back-up solution 1 h after each administration (modeling once every other day on the 1st, 3rd, and 5th days).
The first group was the blank control group, which was given 0.5% CMC-Na 0.2 ml/20 g by gavage; the second group was the model group, which was given 0.5% CMC-Na by gavage; the third group was the positive drug group, which was given by gavage Flunarizine hydrochloride (sibilin) 1 mg/kg; the fourth group was the low-dose group of test drug, which was given 100 mg/kg of compound 5 by gavage; the fifth group was the medium-dose group of test drug, which was given 200 mg/kg of compound 5 by gavage; the sixth group was the high-dose group of test drug, which was given 400 mg/kg of compound 5 by gavage. Dosing every other day on days 1, 3, and 5.
In behavioral studies, mice scratching their heads for more than 5 times or scratching their faces with forelimbs for more than 5 times were identified as migraine-related behaviors caused by modeling, with a record of scratching their heads once; in the hot plate method, mice lifted their hind limbs and licked their hind feet as the observation indicator, record the time immediately.

[7] = compound 5 56 mg/kg, A1P1 24 and 25 mg/kg, Dia 5 mg/kg

NCC1(CC(=O)O)CCCCC1 [Gabapentin, gabapentin, reference compound]
Pain response time Before administration ([1]; 25 mg/kg gavage group, baseline, n 10, X ± SD): 16.6 ± 5.2 s | Pain response time After administration ([1]; 25 mg/kg gavage, 60 min after administration, X ± SD): 33.5 ± 15.0 s | Pain response time extension rate ([1]; 25 mg/kg gavage, 60 min after administration, blank group 3.9 ± 6.6): 113.4 ± 99.1 %

CNCCC(Oc1ccc(C(F)(F)F)cc1)c1ccccc1 (stereo not shown) [fluoxetine hydrochloride, reference compound]
effect on body weight of mice ([2]; compound 5 100, 200, 400 mg/kg and positive drug, gavage for one week): no significant effect | alleviation of depressive behavior caused by LPS ([2]; compound 5 100, 200, 400 mg/kg and positive drug, gavage for one week, no statistical difference found): certain alleviation effect | spontaneous activity: total migration distance in open field within 5 minutes ([2]; reference blank group, day 7 before last administration, all dose groups, p>0.05): no significant effect | FST immobility time ([2]; reference model group, compound 5 100, 200, 400 mg/kg and positive drug, gavage for one week, 4 h after LPS): not significantly different (p>0.05)

CC(C)c1cccc(C(C)C)c1O [Pro, Propofol, reference compound]
Duration (disappearance to recovery of the righting reflex) [3]: 150.97 s | Observation of activity and other phenomena [3, 7]: significantly reduced | change of preference for sugar water compared with the Res+DMSO group [4]: rose significantly | Sugar water preference (sugar water drinking amount/total drinking amount) [4]: 0.789 ± 0.043 | change of forced swimming immobility time compared with the Res+DMSO group [5]: slightly shortened | Forced swimming immobility time [5]: 145.01 ± 21.21 s

CN(C)CCCN1c2ccccc2CCc2ccc(Cl)cc21 [CLI, clomipramine, reference compound]
change of preference for sugar water compared with the Res+DMSO group [4]: significantly increased | Sugar water preference (sugar water drinking amount/total drinking amount) [4]: 0.812 ± 0.025 | change of forced swimming immobility time compared with the Res+DMSO group [5]: significantly shortened | Forced swimming immobility time [5]: 80.66 ± 23.68 s

CN1C(=O)CN=C(c2ccccc2)c2cc(Cl)ccc21 [Dia, Diazepam, reference compound]
Disappearance time (latency of disappearance of the righting reflex) [3, 7]: did not disappear | Observation of activity and other phenomena [3, 7]: significantly reduced

Fc1ccc(C(c2ccc(F)cc2)N2CCN(C/C=C/c3ccccc3)CC2)cc1 [flunarizine hydrochloride, reference compound]
weight gain of mice ([6]; reference blank group, compound 5 100, 200, 400 mg/kg, flunarizine hydrochloride 1 mg/kg, gavage, p>0.05): no significant difference | hind feet licking time (hot plate) ([6]; reference model group, flunarizine hydrochloride 1 mg/kg gavage, 45 min after modeling, day 5, p<0.05): significant difference | total number of head scratching times ([6]; reference model group, flunarizine hydrochloride 1 mg/kg gavage, day 5): extremely significant (p<0.01)
